Data taken from PubChem BioAssay AID278 (DTP/NCI, 2004).
Several values for one entry are separate records, joined by “and”; a condition that tells them apart may be missing. Identical values can stand only once. Inconclusive results are not listed.

Tested on: nude mice, A549 intrarenal xenograft, tumor weight change
Assay: NCI In Vivo Anticancer Drug Screen. Data for tumor model A549 Human Adenocarcinoma of Lung with characteristics of Type II Alveolar Epithelial cells (intrarenal inoculation) in NU/NU BALB/C (nude) mice
Conditions: endpoint: mean tumor weight change, schedule: Q04DX003 (ip), higher = larger tumour
In short: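 Mice bearing transplantable tumors were treated and survival or tumor size recorded. Values are given as treated-group measurement divided by vehicle-control measurement (T/C).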

[1] = dose: 150.0 mg/kg/injection, vehicle: saline with Tween-80
[2] = dose: 300.0 mg/kg/injection, vehicle: saline with Tween-80
[3] = dose: 600.0 mg/kg/injection, vehicle: saline with Tween-80
[4] = dose: 1200.0 mg/kg/injection, vehicle: saline with Tween-80
[5] = dose: 15.0 mg/kg/injection, vehicle: saline with Tween-80
[6] = dose: 30.0 mg/kg/injection, vehicle: saline with Tween-80
[7] = dose: 60.0 mg/kg/injection, vehicle: saline with Tween-80
[8] = dose: 125.0 mg/kg/injection, vehicle: saline with Tween-80
[9] = dose: 250.0 mg/kg/injection, vehicle: saline with Tween-80
[10] = dose: 500.0 mg/kg/injection, vehicle: saline with Tween-80
[11] = dose: 150.0 mg/kg/injection, vehicle: suspension in saline
[12] = dose: 300.0 mg/kg/injection, vehicle: suspension in saline
[13] = dose: 600.0 mg/kg/injection, vehicle: suspension in saline

O=C(Oc1ccccc1)c1cc(O)c(O)c(O)c1
T/C (dose: 18.75 mg/kg/injection, vehicle: saline): 60 % of control
T/C (dose: 37.5 mg/kg/injection, vehicle: saline): 80 % of control
T/C (dose: 75.0 mg/kg/injection, vehicle: saline): 50 % of control
T/C (dose: 150.0 mg/kg/injection, vehicle: saline): 62 % of control

N#Cc1c(N)[nH]c2ccc(Sc3ccccc3)cc12
T/C (dose: 30.0 mg/kg/injection, vehicle: saline): 106 % of control
T/C (dose: 60.0 mg/kg/injection, vehicle: saline): 42 % of control
T/C (dose: 240.0 mg/kg/injection, vehicle: saline): 49 % of control

CN(C)c1ccc2c(Nc3ccc(NS(C)(=O)=O)cc3)c3ccc(N(C)C)cc3nc2c1
T/C (dose: 50.0 mg/kg/injection, vehicle: Klucel (hydroxypropylcellulose) (HPC)): 116 % of control
T/C (dose: 100.0 mg/kg/injection, vehicle: Klucel (hydroxypropylcellulose) (HPC)): 39 % of control
T/C (dose: 200.0 mg/kg/injection, vehicle: Klucel (hydroxypropylcellulose) (HPC)): 41 % of control

CC(C)(C)c1ccc(C(=O)N2CCOC23CCCCC3)cc1
T/C [1]: 55 % of control
T/C [2]: 28 % of control
T/C [3]: 63 % of control
T/C [4]: 42 % of control

CCOC(=O)Nc1cc2c(c(N)n1)N=C(c1ccc3ccccc3c1)CN2
T/C (dose: 7.5 mg/kg/injection, vehicle: saline with Tween-80): 82 % of control
T/C [5]: 113 % of control
T/C [6]: 63 % of control
T/C [7]: 55 % of control

c1ccc2[nH]c(CN(CCN(Cc3nc4ccccc4[nH]3)Cc3nc4ccccc4[nH]3)Cc3nc4ccccc4[nH]3)nc2c1
T/C (dose: 6.25 mg/kg/injection, vehicle: DMSO): 124 % of control
T/C (dose: 12.5 mg/kg/injection, vehicle: DMSO): 102 % of control
T/C (dose: 25.0 mg/kg/injection, vehicle: DMSO): 157 % of control

ClCCCSSCCCCl
T/C (dose: 62.5 mg/kg/injection, vehicle: saline with Tween-80): 56 % of control
T/C [8]: 76 % of control
T/C [9]: 81 % of control
T/C [10]: 82 % of control

CS(=O)(=O)CS(=O)(=O)OCCF
T/C (dose: 6.25 mg/kg/injection, vehicle: saline): 40 % of control
T/C (dose: 12.5 mg/kg/injection, vehicle: saline): 62 % of control
T/C (dose: 25.0 mg/kg/injection, vehicle: saline): 50 % of control
T/C (dose: 50.0 mg/kg/injection, vehicle: saline): 50 % of control

C=CCSC(C)=O
T/C (dose: 62.5 mg/kg/injection, vehicle: suspension in saline): 83 % of control
T/C (dose: 125.0 mg/kg/injection, vehicle: suspension in saline): 53 % of control
T/C (dose: 250.0 mg/kg/injection, vehicle: suspension in saline): 90 % of control
T/C (dose: 500.0 mg/kg/injection, vehicle: suspension in saline): 71 % of control

CCCCNP1(NCCCC)=NP(NCCCC)(NCCCC)=NP(NCCCC)(NCCCC)=NP(NCCCC)(NCCCC)=N1
T/C [1]: 111 % of control
T/C [2]: 44 % of control

CCCCN1C(=O)N(c2ccc(OCC)cc2)C2N(CCCC)C1C(C)(C)C2(C)C (stereo unspecified)
T/C [5]: 60 % of control
T/C [6]: 51 % of control
T/C [7]: 88 % of control
T/C (dose: 120.0 mg/kg/injection, vehicle: saline with Tween-80): 94 % of control

N[C@@H](Cc1c[nH]c2ccccc12)C(=O)Nc1nncs1
T/C [11]: 74 % of control
T/C [12]: 67 % of control
T/C [13]: 70 % of control

NC(=S=O)C(N)=S=O
T/C [8]: 97 % of control
T/C [9]: 98 % of control
T/C [10]: 100 % of control

Nc1ccc2ccc(NS(=O)(=O)N3CCCCC3)cc2c1
T/C [1]: 94 % of control
T/C [2]: 60 % of control
T/C [3]: 32 % of control

Nc1ncnc2c1nc(Cl)n2C1OC2COP(=O)(O)OC2C1O (stereo unspecified)
T/C (dose: 25.0 mg/kg/injection, vehicle: water): 198 % of control
T/C (dose: 50.0 mg/kg/injection, vehicle: water): 85 % of control

Cc1ccc2c(c1)n([O-])c1cc(Cl)ccc1[n+]2=O
T/C (dose: 35.0 mg/kg/injection, vehicle: saline with Tween-80): 102 % of control
T/C (dose: 70.0 mg/kg/injection, vehicle: saline with Tween-80): 65 % of control
T/C (dose: 140.0 mg/kg/injection, vehicle: saline with Tween-80): 108 % of control
T/C (dose: 280.0 mg/kg/injection, vehicle: saline with Tween-80): 94 % of control

Cc1ccc(NN=O)nc1
T/C (dose: 5.0 mg/kg/injection, vehicle: water): 79 % of control
T/C (dose: 10.0 mg/kg/injection, vehicle: water): 81 % of control
T/C (dose: 20.0 mg/kg/injection, vehicle: water): 61 % of control
T/C (dose: 40.0 mg/kg/injection, vehicle: water): 33 % of control

c1ccc([Te][Te]c2ccccc2)cc1
T/C (dose: 9.38 mg/kg/injection, vehicle: saline with Tween-80): 71 % of control
T/C (dose: 18.75 mg/kg/injection, vehicle: saline with Tween-80): 59 % of control
T/C (dose: 37.5 mg/kg/injection, vehicle: saline with Tween-80): 122 % of control

NC(=O)c1cc(Cl)nc2nc(Cl)nc(N)c12
T/C [1]: 111 % of control
T/C [2]: 89 % of control
T/C [3]: 55 % of control
T/C [4]: 93 % of control

CC1/C=C/C=C/CC/C=C/C=C/C=C/C=C/C(OC2OC(C)C(O)C(N)C2O)CC2OC(CC(O)C(O)CCC(O)CC(O)CC(O)CC(=O)OC(C)C(C)C1O)CC(O)C2C(=O)O (stereo unspecified)
T/C (dose: 25.0 mg/kg/injection, vehicle: saline with Tween-80): 97 % of control
T/C (dose: 50.0 mg/kg/injection, vehicle: saline with Tween-80): 69 % of control
T/C (dose: 100.0 mg/kg/injection, vehicle: saline with Tween-80): 62 % of control

CN(C)N=Nc1ccc(C(N)=O)cc1
T/C (dose: 22.5 mg/kg/injection, vehicle: saline with Tween-80): 65 % of control
T/C (dose: 45.0 mg/kg/injection, vehicle: saline with Tween-80): 55 % of control
T/C (dose: 90.0 mg/kg/injection, vehicle: saline with Tween-80): 54 % of control
T/C (dose: 180.0 mg/kg/injection, vehicle: saline with Tween-80): 17 % of control
T/C (dose: 216.0 mg/kg/injection, vehicle: saline with Tween-80): 39 % of control
T/C (dose: 360.0 mg/kg/injection, vehicle: saline with Tween-80): 2 % of control and 15 % of control

O=c1[nH]cnc2c1nnn2C1OC(CO)C(O)C1O (stereo unspecified)
T/C [11]: 83 % of control
T/C [12]: 47 % of control
T/C [13]: 32 % of control
T/C (dose: 1200.0 mg/kg/injection, vehicle: suspension in saline): 38 % of control

O=C1C(=O)c2cccnc2-c2ncccc21
T/C (dose: 1.25 mg/kg/injection, vehicle: Klucel (hydroxypropylcellulose) (HPC)): 59 % of control
T/C (dose: 2.5 mg/kg/injection, vehicle: Klucel (hydroxypropylcellulose) (HPC)): 55 % of control
T/C (dose: 10.0 mg/kg/injection, vehicle: Klucel (hydroxypropylcellulose) (HPC)): 6 % of control
